Assay results taken from patent US11382946B2, “Multi-functional peptides and use thereof” (NOVACELL TECHNOLOGY INC., priority 2019, dated 2022).
Non-standard residues stand in square brackets, D forms with d. Residues, ends and D or L forms follow the SMILES beside them. *: point of attachment. 2Nal = N[C@@H](Cc1ccc2ccccc2c1)C(=O)O; Nle = CCCC[C@H](N)C(=O)O; Octanoyl = CCCCCCCC(=O)*

What was measured:
FPR2 = biological target: T1, FPR2 (Homo sapiens, UniProt P25090); experiment: FPR2 activation by intracellular calcium ion increase (Fura-2/AM) in FPR2-RBL cells; assay type: cell-based; details: RBL cells overexpressing FPR2
T1 construct: expressed in transfected cells; host or cells: RBL cells overexpressing FPR2 (FPR2-RBL)
T1 sequence (P25090 1-351): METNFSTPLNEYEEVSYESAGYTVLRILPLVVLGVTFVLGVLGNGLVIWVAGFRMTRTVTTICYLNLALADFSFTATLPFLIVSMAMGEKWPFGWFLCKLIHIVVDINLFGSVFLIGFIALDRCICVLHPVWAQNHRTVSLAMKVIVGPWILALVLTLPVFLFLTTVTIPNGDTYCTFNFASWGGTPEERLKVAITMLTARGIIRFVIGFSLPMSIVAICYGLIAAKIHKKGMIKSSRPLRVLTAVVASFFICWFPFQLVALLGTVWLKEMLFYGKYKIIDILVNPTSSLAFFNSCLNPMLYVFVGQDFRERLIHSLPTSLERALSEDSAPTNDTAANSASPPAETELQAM
Procedure: The present inventors observed a change in calcium ion permeability of the candidate peptides according to an embodiment of the present invention in order to determine whether they can activate the immunomodulatory function in a body or not. Particularly, intracellular concentration of calcium ions was measured to confirm that the peptide activates FPR2. RBL cells that do neither express FPR1 nor FPR2, RBL cells overexpressed FPR1 (FPR1-RBL) and RBL cells that overexpressed FPR2 (FPR2-RBL) were used and Fura-2/AM which is a fluorophore having high binding affinity to calcium in order to measure intracellular calcium ion level sensitively. For this purpose, cells were cultured in RPMI medium supplemented with 10% fetal bovine serum and harvested by centrifugation in log phase (mid-log phase, 1-3×10^7 cells/ml), and then washed several times with RPMI medium not supplemented with fetal bovine serum, and then the cells were resuspended in RPMI medium to 1×10^7 cells/ml. Subsequently, a final 3 μM concentration of Fura-2/AM was added and the cells were incubated for 45 minutes in a 37° C., 5% CO2 incubator. After the appropriated time, the cells are harvested, washed again with RPMI medium, and then suspended in the appropriate amount of RPMI medium supplemented with 250 μM of sulfinpyrazone, in order to prevent loss of Fura-2 entering the cells. About 2×10^6 cells were taken each time, harvested by rapid centrifugation, and resuspended in 1 ml of a Locke solution without addition of calcium ions and EGTA added, and the ratio of absorbance at two wavelengths of 340 nm and 380 nm on a spectrophotometer were monitored by treating the peptides according to an embodiment of the present invention at different concentrations (1 μM, 0.1 μM, and 0.01 μM) at intervals of about 1 minute, and then the difference in absorbance at two wavelengths was investigated. It was converted to the concentration of free calcium ions into cells according to the method of Grynkiewicz.

S. aureus = assay type: cell-based, Staphylococcus aureus; details: 18 h
Procedure: (§1) The present inventors evaluated […] in order to select peptides showing excellent performance among various peptides synthesized in the Example 1. Particularly, in order to measure the antimicrobial activity of the peptide, after preparing Gram-positive bacteria Staphylococcus aureus (S. aureus) and Gram-negative bacteria Pseudomonas aeruginosa (P. aeruginosa), the bacteria were plated on agar plate medium by fourth streaking and cultured overnight in a 36° C. incubator. The next day, the strain colonies produced on the agar plate medium were inoculated into 3 ml nutrient medium and cultured overnight in a stirring incubator at 36° C. and 220 rpm. The next day, the bacteria were diluted to measure absorbance at 600 nm, adjusted to OD600=0.5, and diluted in a 1:100 ratio in nutrient medium. Then, the peptides prepared in the above Examples were serially diluted in concentrations of 0, 1.25, 2.5, 5, 10, and 20 μM in a nutrient medium to prepare 1 ml each, and then inoculated with 1 ml of the diluted bacteria. Subsequently, the mixture was stirred under conditions of 36° C. and 220 rpm, and incubated for 18 hours, and absorbance at 600 nm was measured.
(§2) As a result, 20 peptides showing high antibacterial activity against P. aeruginosa and S. aureus) were selected (FIGS. 2 and 3).

P. aeruginosa = assay type: cell-based, Pseudomonas aeruginosa; details: 18 h
Procedure: as §1, §2

| SMILES | EC50 (FPR2) [nM] | Antimicrobial activity (IC50, μg/ml) S. aureus (S. aureus) [µg/mL] | Antimicrobial activity (IC50, μg/ml) P. aeruginosa (P. aeruginosa) [µg/mL] |
| --- | --- | --- | --- |
| CCCCCCCC(=O)N[C@@H](CCCCN)C(=O)N[C@@H](Cc1ccccc1)C(=O)N[C@@H](CCCCN)C(=O)N[C@@H](Cc1c[nH]c2ccccc12)C(=O)N[C@@H](CCCC)C(=O)N[C@@H](Cc1ccc(O)cc1)C(=O)N[C@H](CCSC)C(N)=O [Peptide V3, Oct-KFKW-Nle-Ym-NH2] (Octanoyl-KFKW[Nle]Y[dM]-NH2) | 107 | 15.2 |  |
| CCCCCCCC(=O)N[C@@H](CCCCN)C(=O)N[C@@H](Cc1c[nH]c2ccccc12)C(=O)N[C@@H](CCCCN)C(=O)N[C@@H](Cc1c[nH]c2ccccc12)C(=O)N[C@@H](CCCC)C(=O)N[C@@H](Cc1ccc(O)cc1)C(=O)N[C@H](CCSC)C(N)=O [Peptide V4, Oct-KWKW-Nle-Ym-NH2] (Octanoyl-KWKW[Nle]Y[dM]-NH2) | 64 | 5.1 |  |
| CCCCCCCC(=O)N[C@@H](CCCNC(=N)N)C(=O)N[C@@H](Cc1c[nH]c2ccccc12)C(=O)N[C@@H](CCCNC(=N)N)C(=O)N[C@@H](Cc1c[nH]c2ccccc12)C(=O)N[C@@H](CCCC)C(=O)N[C@@H](Cc1ccc(O)cc1)C(=O)N[C@H](CCSC)C(N)=O [Peptide V5, Oct-RWRW-Nle-Ym-NH2] (Octanoyl-RWRW[Nle]Y[dM]-NH2) | 41.5 | 2.0 | >50 |
| CCCCCCCC(=O)N[C@@H](CCCCN)C(=O)N[C@@H](Cc1ccccc1)C(=O)N[C@@H](CCCCN)C(=O)N[C@@H](Cc1c[nH]c2ccccc12)C(=O)N[C@@H](CCCNC(=N)N)C(=O)N[C@@H](Cc1ccc(O)cc1)C(=O)N[C@@H](CCSC)C(=O)N[C@H](C(=O)N[C@H](CCSC)C(N)=O)C(C)C [Peptide V6, Oct-KFKWRYMVm-NH2] (Octanoyl-KFKWRYMV[dM]-NH2) | 4.2 | >50 |  |
| CCCCCCCC(=O)N[C@@H](CCCNC(=N)N)C(=O)N[C@@H](Cc1c[nH]c2ccccc12)C(=O)N[C@@H](CCCNC(=N)N)C(=O)N[C@@H](Cc1c[nH]c2ccccc12)C(=O)N[C@@H](CCCNC(=N)N)C(=O)N[C@@H](Cc1ccc(O)cc1)C(=O)N[C@@H](CCSC)C(=O)N[C@H](C(=O)N[C@H](CCSC)C(N)=O)C(C)C [Peptide V8, Oct-RWRWRYMVm-NH2] (Octanoyl-RWRWRYMV[dM]-NH2) | 6.4 | 13.0 | 24.4 |
| CCCCCCCC(=O)N[C@@H](CCCNC(=N)N)C(=O)N[C@@H](Cc1c[nH]c2ccccc12)C(=O)N[C@@H](CCCNC(=N)N)C(=O)N[C@@H](Cc1c[nH]c2ccccc12)C(=O)N[C@@H](CCCNC(=N)N)C(=O)N[C@@H](Cc1c[nH]c2ccccc12)C(=O)N[C@@H](CCSC)C(=O)N[C@H](C(=O)N[C@H](CCSC)C(N)=O)C(C)C [Peptide V9, Oct-RWRWRWMVm-NH2] (Octanoyl-RWRWRWMV[dM]-NH2) | 4.7 | 12.7 |  |
| CCCCCCCC(=O)N[C@@H](CCCNC(=N)N)C(=O)N[C@@H](Cc1c[nH]c2ccccc12)C(=O)N[C@@H](CCCNC(=N)N)C(=O)N[C@@H](Cc1c[nH]c2ccccc12)C(=O)N[C@@H](Cc1ccc2ccccc2c1)C(=O)N[C@@H](Cc1c[nH]c2ccccc12)C(N)=O [Peptide V16, Oct-RWRWZW-NH2] (Octanoyl-RWRW[2Nal]W-NH2) |  | 2.7 | 7.3 |
| N=C(N)NCCC[C@H](NC(=O)[C@H](Cc1c[nH]c2ccccc12)NC(=O)[C@@H](N)CCCNC(=N)N)C(=O)N[C@@H](Cc1c[nH]c2ccccc12)C(=O)N[C@@H](Cc1ccc2ccccc2c1)C(=O)N[C@@H](Cc1c[nH]c2ccccc12)C(N)=O [Peptide V16_0, RWRWZW-NH2] (H-RWRW[2Nal]W-NH2) |  | 30.2 | 4.3 |
| CCCCCCCC(=O)N[C@@H](CCCNC(=N)N)C(=O)N[C@@H](Cc1c[nH]c2ccccc12)C(=O)N[C@@H](CCCNC(=N)N)C(=O)N[C@@H](Cc1c[nH]c2ccccc12)C(=O)N[C@@H](Cc1ccc2ccccc2c1)C(=O)N[C@@H](Cc1c[nH]c2ccccc12)C(=O)N[C@H](CCSC)C(N)=O [Peptide V18, Oct-RWRWZWm-NH2] (Octanoyl-RWRW[2Nal]W[dM]-NH2) | 62.8 | 2.3 | 16.2 |
| CSCC[C@@H](NC(=O)[C@H](Cc1c[nH]c2ccccc12)NC(=O)[C@H](Cc1ccc2ccccc2c1)NC(=O)[C@H](Cc1c[nH]c2ccccc12)NC(=O)[C@H](CCCNC(=N)N)NC(=O)[C@H](Cc1c[nH]c2ccccc12)NC(=O)[C@@H](N)CCCNC(=N)N)C(N)=O [Peptide V18_0, RWRWZWm-NH2] (H-RWRW[2Nal]W[dM]-NH2) | 10 | 6.8 | 21.1 |
| CSCC[C@@H](NC(=O)[C@H](Cc1c[nH]c2ccccc12)NC(=O)[C@H](CCCNC(=N)N)NC(=O)[C@H](Cc1c[nH]c2ccccc12)NC(=O)[C@H](Cc1c[nH]c2ccccc12)NC(=O)[C@H](CCCNC(=N)N)NC(=O)[C@H](Cc1ccc2ccccc2c1)NC(C)=O)C(N)=O [Peptide V19_Ac, Ac-ZRWWRWm-NH2] (Ac-[2Nal]RWWRW[dM]-NH2) | 69.4 | 5.4 | >50 |
| CCCC[C@H](NC(=O)[C@H](Cc1c[nH]c2ccccc12)NC(=O)[C@H](Cc1c[nH]c2ccccc12)NC(=O)[C@H](CCCNC(=N)N)NC(=O)[C@H](Cc1ccc2ccccc2c1)NC(C)=O)C(=O)N[C@@H](Cc1c[nH]c2ccccc12)C(=O)N[C@H](CCSC)C(N)=O [Peptide V20_Ac, Ac-ZRWW-Nle-Wm-NH2] (Ac-[2Nal]RWW[Nle]W[dM]-NH2) | 45.3 | >50 | >50 |
| CSCC[C@@H](NC(=O)[C@@H](NC(=O)[C@H](CCCNC(=N)N)NC(=O)[C@H](Cc1c[nH]c2ccccc12)NC(=O)[C@H](Cc1c[nH]c2ccccc12)NC(=O)[C@H](CCCNC(=N)N)NC(=O)[C@H](Cc1ccc2ccccc2c1)NC(C)=O)C(C)C)C(N)=O [Peptide V21_Ac, Ac-ZRWWRVm-NH2] (Ac-[2Nal]RWWRV[dM]-NH2) | 92.3 | 9.4 | >50 |
| CSCC[C@@H](NC(=O)[C@H](Cc1c[nH]c2ccccc12)NC(=O)[C@H](CCCNC(=N)N)NC(=O)[C@H](Cc1c[nH]c2ccccc12)NC(=O)[C@H](Cc1c[nH]c2ccccc12)NC(=O)[C@@H](NC(=O)[C@H](CCCNC(=N)N)NC(=O)[C@H](Cc1c[nH]c2ccccc12)NC(=O)[C@H](Cc1c[nH]c2ccccc12)NC(=O)[C@H](CCCNC(=N)N)NC(=O)[C@H](Cc1ccc2ccccc2c1)NC(C)=O)C(C)C)C(N)=O [Peptide V22_Ac, Ac-ZRWWRVWWRWm-NH2] (Ac-[2Nal]RWWRVWWRW[dM]-NH2) | 16.2 | 13.6 | >50 |
